Consider three compounds from ChEMBL document CHEMBL4316621, “A potent seven-membered cyclic BTK (Bruton's tyrosine Kinase) chiral inhibitor conceived by structure-based drug design to lock its bioactive conformation” (Bioorg Med Chem Lett, 2019).

The target of data set [1] is T1, Tyrosine-protein kinase BTK (Homo sapiens, UniProt Q06187). The experiment in a line: Inhibition of Kinase Tracer 178 binding to biotinylated-BTK (unknown origin) measured after 18 to 24 hrs by Europium-labeled Streptavidin conjugate based TR-FRET assay. A general note: TR-FRET usually uses a lanthanide donor and a delayed reading to cut background.
Data set [2] can be described thus: Intrinsic clearance in rat hepatocytes assessed per million cells at 1 uM preincubated for 1 hr followed by NADPH addition and measured by LC/MS/MS analysis. Format: ADME, cell-based, Hepatocyte. Particulars: read-out: CLH; call rule not given here.
For a further data set, the target named is Cytochrome P450 2C9 (Homo sapiens, UniProt P11712). The experiment in a line: Inhibition of CYP2C9 (unknown origin). The class given is ADME.
The nature of data set [3]: Intrinsic clearance in human hepatocytes assessed per million cells at 1 uM preincubated for 1 hr followed by NADPH addition and measured by LC/MS/MS analysis. Format: ADME, cell-based, Hepatocyte. Particulars: read-out: CLH.
The target in the next data set is Cytochrome P450 2D6 (Homo sapiens, UniProt P10635). The experiment in a line: Inhibition of CYP2D6 (unknown origin). The class given is ADME.
Data set [4] can be described thus: Intrinsic clearance in human liver microsomes at 1 uM preincubated for 1 hr followed by NADPH addition and measured by LC/MS/MS analysis. The conditions noted are these: read-out: CLH. Format: ADME, Microsome. A general note: Liver microsomes are vesicles of endoplasmic reticulum, rich in cytochrome P450 enzymes.
The target in data set [5] is T1, Tyrosine-protein kinase BTK. The data set can be described thus: Inhibition of BTK in goat F(ab')2 anti-human IgM-stimulated human whole blood assessed as suppression of CD69 expression on B cells pretreated for 30 mins followed by goat F(ab')2 anti-human IgM-stimulation and measured after 20 hrs by flow cytometry. Format: tissue-based.
A short description of data set [6]: Intrinsic clearance in rat liver microsomes at 1 uM preincubated for 1 hr followed by NADPH addition and measured by LC/MS/MS analysis. The class given is ADME, Microsome. The conditions noted are these: read-out: CLH.
Data set [7] in a line: Solubility of the compound by LYSA. The class given is physicochemical.
Data set [8] concerns the target T2, Cytochrome P450 3A4 (Homo sapiens, UniProt P08684). The experiment in a line: Time-dependent inhibition of CYP3A4 (unknown origin). The class given is ADME.
Data set [9] deals with T2, Cytochrome P450 3A4. The experiment in a line: Inhibition of CYP3A4 (unknown origin). Format: ADME.

Molecules are shown by their SMILES. Values after ≈ are worked out from the molar mass of the structure shown.

T2 sequence (P08684 whole entry): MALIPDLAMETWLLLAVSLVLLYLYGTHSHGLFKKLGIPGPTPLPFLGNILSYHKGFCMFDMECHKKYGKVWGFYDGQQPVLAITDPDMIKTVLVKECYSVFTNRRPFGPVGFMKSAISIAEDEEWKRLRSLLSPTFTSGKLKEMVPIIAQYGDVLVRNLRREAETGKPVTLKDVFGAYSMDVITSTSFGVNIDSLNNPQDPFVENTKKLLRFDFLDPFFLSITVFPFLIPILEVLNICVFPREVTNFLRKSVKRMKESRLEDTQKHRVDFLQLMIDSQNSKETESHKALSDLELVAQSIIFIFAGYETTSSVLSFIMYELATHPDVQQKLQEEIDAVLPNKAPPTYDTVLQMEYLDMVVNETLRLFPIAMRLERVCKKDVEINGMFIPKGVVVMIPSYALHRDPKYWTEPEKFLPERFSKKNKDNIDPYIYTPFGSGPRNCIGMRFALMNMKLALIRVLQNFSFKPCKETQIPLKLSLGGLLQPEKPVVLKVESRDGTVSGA
Chain of Cytochrome P450 2C9 (P11712 whole entry): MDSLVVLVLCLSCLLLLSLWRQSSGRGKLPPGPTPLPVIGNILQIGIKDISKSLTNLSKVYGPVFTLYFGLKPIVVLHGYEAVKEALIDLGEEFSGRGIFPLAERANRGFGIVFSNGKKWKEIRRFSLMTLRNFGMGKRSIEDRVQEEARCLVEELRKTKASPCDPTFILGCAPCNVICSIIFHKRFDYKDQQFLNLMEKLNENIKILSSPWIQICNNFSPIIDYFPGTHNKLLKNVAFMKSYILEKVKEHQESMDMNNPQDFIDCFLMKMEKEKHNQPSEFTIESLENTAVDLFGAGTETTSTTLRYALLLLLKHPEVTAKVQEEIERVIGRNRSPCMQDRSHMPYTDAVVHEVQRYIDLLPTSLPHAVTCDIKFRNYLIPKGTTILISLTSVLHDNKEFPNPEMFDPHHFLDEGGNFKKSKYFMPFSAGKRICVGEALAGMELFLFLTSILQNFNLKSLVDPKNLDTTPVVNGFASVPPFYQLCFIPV
T1 sequence (Q06187 whole entry): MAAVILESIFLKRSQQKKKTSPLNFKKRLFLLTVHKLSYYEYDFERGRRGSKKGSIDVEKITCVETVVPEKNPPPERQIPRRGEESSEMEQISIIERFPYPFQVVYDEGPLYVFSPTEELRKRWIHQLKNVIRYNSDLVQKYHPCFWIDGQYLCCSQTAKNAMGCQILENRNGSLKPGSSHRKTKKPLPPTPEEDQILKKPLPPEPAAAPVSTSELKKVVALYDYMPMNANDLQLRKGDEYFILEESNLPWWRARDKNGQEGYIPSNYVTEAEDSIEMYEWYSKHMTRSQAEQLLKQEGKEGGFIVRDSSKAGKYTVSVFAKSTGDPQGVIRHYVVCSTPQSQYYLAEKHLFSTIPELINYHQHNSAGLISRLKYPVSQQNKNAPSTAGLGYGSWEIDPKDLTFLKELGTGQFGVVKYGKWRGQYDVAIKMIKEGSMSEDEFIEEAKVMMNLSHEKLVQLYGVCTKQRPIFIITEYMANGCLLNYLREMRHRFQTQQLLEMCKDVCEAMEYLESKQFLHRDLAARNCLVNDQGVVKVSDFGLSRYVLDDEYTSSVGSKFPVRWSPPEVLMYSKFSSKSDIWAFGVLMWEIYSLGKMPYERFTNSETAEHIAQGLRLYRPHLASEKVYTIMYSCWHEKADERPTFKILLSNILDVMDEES
Chain of Cytochrome P450 2D6 (P10635 whole entry): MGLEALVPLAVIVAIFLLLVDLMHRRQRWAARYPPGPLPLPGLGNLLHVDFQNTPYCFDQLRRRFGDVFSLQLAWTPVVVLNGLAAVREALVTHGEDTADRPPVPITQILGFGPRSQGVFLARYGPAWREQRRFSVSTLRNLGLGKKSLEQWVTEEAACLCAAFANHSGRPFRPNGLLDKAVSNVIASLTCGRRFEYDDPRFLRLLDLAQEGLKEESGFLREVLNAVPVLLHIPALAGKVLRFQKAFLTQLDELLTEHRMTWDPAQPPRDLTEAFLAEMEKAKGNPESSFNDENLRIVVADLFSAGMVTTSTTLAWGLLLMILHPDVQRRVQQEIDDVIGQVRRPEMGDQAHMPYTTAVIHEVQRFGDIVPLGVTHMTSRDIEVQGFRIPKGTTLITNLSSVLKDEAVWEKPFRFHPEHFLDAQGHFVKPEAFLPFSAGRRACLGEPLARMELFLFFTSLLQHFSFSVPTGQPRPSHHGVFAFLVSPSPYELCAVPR

As to `Cn1nc(-c2cccc(-n3ncc4cc(C(C)(C)C)cc(F)c4c3=O)c2CO)cc(Nc2ccc(C(=O)N3CCOCC3)cn2)c1=O`, the figures for the IC50 in [1] and in data set [5] were less than 1 nM and 23 nM, respectively. The hepatocyte CLint at 1 µM in data set [2] is 2 µL/min/1e6 cells; in data set [3], 0.3 µL/min/1e6 cells. Besides, the INH on Cytochrome P450 2C9, on Cytochrome P450 2D6 and on Cytochrome P450 3A4 [9] was greater than 10 µM in each case. The microsomal CLint at 1 µM in [4] is 20 µL/min/mg; in data set [6], 29 µL/min/mg. Further, the concentration in solution in [7] (solubility) came to 1.1 µg/mL (≈ 1.72 µM). On Cytochrome P450 3A4 [8], this compound came in with a TDI of 0%.
Take `Cn1c2c(cc(Nc3ccc(C(=O)N4CCOCC4)cn3)c1=O)-c1cccc(-n3ncc4cc(C(C)(C)C)cc(F)c4c3=O)c1CC(O)C2` (racemic): the hepatocyte CLint at 1 µM in data set [2] amounted to 3.3 µL/min/1e6 cells; in data set [3] it was 0.3 µL/min/1e6 cells. The INH at Cytochrome P450 2C9, on Cytochrome P450 2D6 and on Cytochrome P450 3A4 [9] was greater than 7 µM each time. Further, the values for the microsomal CLint at 1 µM in data set [4] and in data set [6] were 29 µL/min/mg and 19 µL/min/mg, respectively. Also, the concentration in solution in [7] (solubility) came to 1 µg/mL (≈ 1.5 µM). The same compound registered a TDI at Cytochrome P450 3A4 [8] of 0%.
With `Cn1c2c(cc(Nc3ccc(C(=O)N4CCOCC4)cn3)c1=O)-c1cccc(-n3ncc4cc(C(C)(C)C)cc(F)c4c3=O)c1C[C@H](O)C2`, the TDI result at Cytochrome P450 3A4 [8] is listed as “Not Active”.
